Molecules are shown by their SMILES.

The values that follow come from patent publication US12521393B2, “Cytotoxicity targeting chimeras for CCR2-expressing cells” (GLAXOSMITHKLINE INTELLECTUAL PROPERTY DEVELOPMENT LIMITED, priority 2021, dated 2026).

The subject of experiment [1] is endogenous target monocytes in human PBMC. Kind of experiment: PBMC ex vivo monocyte depletion flow cytometry assay (Example 200). The settings on record: with anti-cotinine antibody (SEQ ID NO: 11/12), 18-24 hours, EC50 in molar, read-out: Ex Vivo Depletion Assay pEC50 (converted). The experiment is classed as cell-based. Put shortly:
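Monocyte depletion is reported as pEC50, averaged or given individually across runs, and read by flow cytometry staining CD45, CD14 and CD4 with a viability dye. Compounds, diluted four-fold over 11 points from 1 mM DMSO stocks, were combined with 30 μg/mL Fc-enhanced anti-cotinine antibody and human PBMC, then incubated 18-24 h at 37° C.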

Experiment [2] concerns the target anti-cotinine antibody (SEQ ID NO: 11/12, rabbit variable region with human IgG1 Fc DE mutation). Nature of the experiment: SPR binding of anti-cotinine antibody to ARM compounds, Biacore T200, 37° C. (Example 202). As to conditions: SPR Biacore T200, 37° C., pH 7.4, antibody SEQ ID NO: 11/12 captured on protein A; Kd in molar. The essentials: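 Antibody captured on a protein A chip; ARM compounds injected at 100 μL/min (200 s association, 2000 s dissociation), 3-fold 5-point series from 200 nM, at 37 °C in HEPES pH 7.4 buffer with 0.005% P20 and 1% DMSO. Double-referenced sensorgrams fit 1:1 for kon, koff, Kd (koff/kon), residence time (1/koff); pKd averaged across runs.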

`CN1C(=O)C[C@H](C(=O)NCCOCCNC(=O)[C@H]2C[C@H](NC(=O)CCOCCC(=O)N[C@@H]3C[C@H](NC(C)(C)C)CC[C@@H]3N3CC[C@H](Nc4ncnc5ccc(C(F)(F)F)cc45)C3=O)C2)[C@H]1c1cccnc1` [Example 188, (2S,3S)-N-(2-(2-((1R,3S)-3-(3-(3-(((1R,2S,5R)-5-(tert-butylamino)-2-((S)-2-oxo-3-((6-(trifluoromethyl)quinazolin-4-yl)amino)pyrrolidin-1-yl)cyclohexyl)amino)-3-oxopropoxy)propanamido)cyclobutane-1-carboxamido)ethoxy)ethyl)-1-methyl-5-oxo-2-(pyridin-3-yl)pyrrolidine-3-carboxamide]: the EC50 in experiment [1] was 0.316 nM. For the same compound, the “pKd of Antibody for ARM Compound of Formula (I)” value (from here on “pKd of Antibody”) in experiment [2] was 8.975.

`CC(C)N(C)[C@@H]1CC[C@H](N2CC[C@H](Nc3ncnc4ccc(C(F)(F)F)cc34)C2=O)[C@H](NC(=O)[C@H]2CC[C@@H](NC(=O)CCCO[C@H]3CC[C@H](OCCNC(=O)[C@H]4CC(=O)N(C)[C@@H]4c4cccnc4)CC3)CC2)C1` [Example 5, (2S,3S)-N-(2-(((1R,4S)-4-(4-(((1S,4S)-4-(((1R,2S,5R)-5-(Isopropyl(methyl)amino)-2-((S)-2-oxo-3-((6-(trifluoromethyl)quinazolin-4-yl)amino)pyrrolidin-1-yl)cyclohexyl)carbamoyl)cyclohexyl)amino)-4-oxobutoxy)cyclohexyl)oxy)ethyl)-1-methyl-5-oxo-2-(pyridin-3-yl)pyrrolidine-3-carboxamide]: the EC50 in experiment [1] was 0.398 nM. Also, the “pKd of Antibody” value in experiment [2] stood at 9.19.

Take `CC(C)N(C)[C@@H]1CC[C@H](N2CC[C@H](Nc3ncnc4ccc(C(F)(F)F)cc34)C2=O)[C@H](NC(=O)[C@H]2CC[C@@H](NC(=O)CCCOCCCCOCCNC(=O)[C@H]3CC(=O)N(C)[C@@H]3c3cccnc3)CC2)C1` [Example 122, (2S,3S)-N-(2-(4-(4-(((1S,4s)-4-(((1R,2S,5R)-5-(Isopropyl(methyl)amino)-2-((S)-2-oxo-3-((6-(trifluoromethyl)quinazolin-4-yl)amino)pyrrolidin-1-yl)cyclohexyl)carbamoyl)cyclohexyl)amino)-4-oxobutoxy)butoxy)ethyl)-1-methyl-5-oxo-2-(pyridin-3-yl)pyrrolidine-3-carboxamide]: the EC50 in experiment [1] was 0.794 nM. The “pKd of Antibody” value in experiment [2] was 9.146.

In the case of `CC(C)N(C)[C@@H]1CC[C@H](N2CC[C@H](Nc3ncnc4ccc(C(F)(F)F)cc34)C2=O)[C@H](NC(=O)CCOCCOCCNC(=O)CCOCCOCCNC(=O)[C@H]2CC(=O)N(C)[C@@H]2c2cccnc2)C1` [Example 76, (2S,3S)-N-(19-(((1R,2S,5R)-5-(Isopropyl(methyl)amino)-2-((S)-2-oxo-3-((6-(trifluoromethyl)quinazolin-4-yl)amino)pyrrolidin-1-yl)cyclohexyl)amino)-9,19-dioxo-3,6,13,16-tetraoxa-10-azanonadecyl)-1-methyl-5-oxo-2-(pyridin-3-yl)pyrrolidine-3-carboxamide], the EC50 in experiment [1] is 1.26 nM. The “pKd of Antibody” value in experiment [2] is 9.1155.

Regarding `CN1C(=O)C[C@H](C(=O)NCCOCCOCCOCCOCCOCCC(=O)N[C@@H]2C[C@H](NC(C)(C)C)CC[C@@H]2N2CC[C@H](Nc3ncnc4ccc(C(F)(F)F)cc34)C2=O)[C@H]1c1cccnc1` [Example 37, (2S,3S)-N-(18-(((1R,2S,5R)-5-(tert-Butylamino)-2-((S)-2-oxo-3-((6-(trifluoromethyl)quinazolin-4-yl)amino)pyrrolidin-1-yl)cyclohexyl)amino)-18-oxo-3,6,9,12,15-pentaoxaoctadecyl)-1-methyl-5-oxo-2-(pyridin-3-yl)pyrrolidine-3-carboxamide], the EC50 in experiment [1] is 5.01 nM. In addition, the “pKd of Antibody” value in experiment [2] is on record as 9.7475.

For `CN1C(=O)C[C@H](C(=O)NCCOCCOCCOCCC(=O)N[C@H]2CC[C@@H](C(=O)N[C@@H]3C[C@H](NC(C)(C)C)CC[C@@H]3N3CC[C@H](Nc4ncnc5ccc(C(F)(F)F)cc45)C3=O)CC2)[C@H]1c1cccnc1` [Example 23, (2S,3S)-N-(2-(2-(2-(3-(((1S,4s)-4-(((1R,2S,5R)-5-(tert-Butylamino)-2-((S)-2-oxo-3-((6-(trifluoromethyl)quinazolin-4-yl)amino)pyrrolidin-1-yl)cyclohexyl)carbamoyl)cyclohexyl)amino)-3-oxopropoxy)ethoxy)ethoxy)ethyl)-1-methyl-5-oxo-2-(pyridin-3-yl)pyrrolidine-3-carboxamide], the EC50 in experiment [1] was 2 nM. Also, the “pKd of Antibody” value in experiment [2] came to 9.2166.

On to `CC(C)N(C)[C@@H]1CC[C@H](N2CC[C@H](Nc3ncnc4ccc(C(F)(F)F)cc34)C2=O)[C@H](NC(=O)CNC(=O)[C@H]2CC[C@@H](NC(=O)CCOCCOCCNC(=O)[C@H]3CC(=O)N(C)[C@@H]3c3cccnc3)CC2)C1` [Example 137, (2S,3S)-N-(2-(2-(3-(((1S,4s)-4-((2-(((1R,2S,5R)-5-(Isopropyl(methyl)amino)-2-((S)-2-oxo-3-((6-(trifluoromethyl)quinazolin-4-yl)amino)pyrrolidin-1-yl)cyclohexyl)amino)-2-oxoethyl)carbamoyl)cyclohexyl)amino)-3-oxopropoxy)ethoxy)ethyl)-1-methyl-5-oxo-2-(pyridin-3-yl)pyrrolidine-3-carboxamide], for which, in experiment [1], the EC50 is 2 nM. In experiment [2], the “pKd of Antibody” value is on record as 9.336.

`CC(C)N(C)[C@@H]1CC[C@H](N2CC[C@H](Nc3ncnc4ccc(C(F)(F)F)cc34)C2=O)[C@H](NC(=O)[C@H]2C[C@@H](NC(=O)CCOCCOCCOCCNC(=O)[C@H]3CC(=O)N(C)[C@@H]3c3cccnc3)C2)C1` [Example 24, (2S,3S)-N-(2-(2-(2-(3-(((1S,3s)-3-(((1R,2S,5R)-5-(Isopropyl(methyl)amino)-2-((S)-2-oxo-3-((6-(trifluoromethyl)quinazolin-4-yl)amino)pyrrolidin-1-yl)cyclohexyl)carbamoyl)cyclobutyl)amino)-3-oxopropoxy)ethoxy)ethoxy)ethyl)-1-methyl-5-oxo-2-(pyridin-3-yl)pyrrolidine-3-carboxamide]: in experiment [1], the EC50 is 1.26 nM. In addition, the “pKd of Antibody” value in experiment [2] is listed as 9.4425.

As to `CN1C(=O)C[C@H](C(=O)NCCO[C@H]2CC[C@H](OCCCC(=O)N[C@H]3CC[C@H](C(=O)N[C@@H]4C[C@H](NC(C)(C)C)CC[C@@H]4N4CC[C@H](Nc5ncnc6ccc(C(F)(F)F)cc56)C4=O)CC3)CC2)[C@H]1c1cccnc1` [Example 10, (2S,3S)-N-(2-(((1R,4S)-4-(4-(((1R,4R)-4-(((1R,2S,5R)-5-(tert-Butylamino)-2-((S)-2-oxo-3-((6-(trifluoromethyl)quinazolin-4-yl)amino)pyrrolidin-1-yl)cyclohexyl)carbamoyl)cyclohexyl)amino)-4-oxobutoxy)cyclohexyl)oxy)ethyl)-1-methyl-5-oxo-2-(pyridin-3-yl)pyrrolidine-3-carboxamide], the “pKd of Antibody” value in experiment [2] is recorded as 9.199.
